These results are taken from US6403586B1, “Pyridazine derivatives and drugs containing the same as the active ingredient” (Kowa Co., Ltd., priority 1998, dated 2002).

As a reminder, the melting point is the temperature of the solid-liquid transition. As for `COc1ccc(-c2cc(NC(C)=O)c(=O)n(CC=Cc3ccc(Cl)cc3)n2)cc1` [Example 113, 4-acetylamino-2-(4-chlorocinnamyl)-6-(4-methoxyphenyl)-2H-pyridazin-3-one], the melting point fell in the range of 158.7 to 161.9 °C. In the case of `COc1ccc(-c2cc(C(=O)Nc3ccccc3)c(=O)n(CC3CC3)n2)cc1` [Example 71, 2-Cyclopropylmethyl-6-(4-methoxyphenyl)-4-phenylcarbamoyl-2H-pyridazin-3-one] it was 162.8 to 163.3 °C; in that of `COC(=O)c1cc(-c2ccc(OC)cc2)nn(Cc2ccc(N)cc2)c1=O` [Example 26, 2-(4-Aminobenzyl)-4-methoxycarbonyl-6-(4-methoxyphenyl)-2H-pyridazin-3-one], 160 to 161.9 °C; in that of `COc1ccc(-c2cc(C(=O)NCc3ccccc3)c(=O)n(CC3CC3)n2)cc1` [Example 68, 4-Benzylcarbamoyl-2-cyclopropylmethyl-6-(4-methoxyphenyl)-2H-pyridazin-3-one], 119.7 to 120.1 °C. The result for `COC(=O)c1cc(-c2ccc(OC)c(Cl)c2)nn(CC=Cc2ccc(Cl)cc2)c1=O` [Example 34, 2-(4-Chlorocinnamyl)-6-(3-chloro-4-methoxyphenyl)-4-methoxycarbonyl-2H-pyridazin-3-one] reads 179.7 to 181.6 °C. In the case of `COc1ccc(-c2cc(C(=O)O)c(=O)n(CC=C(C)C)n2)cc1` [Example 92, 4-carboxy-6-(4-methoxyphenyl)-2-(3-methyl-2-butenyl)-2H-pyridazin-3-one] it was 153.5 to 156.6 °C; in that of `COc1ccc(-c2cc(C(N)=O)c(=O)n(CC3CC3)n2)cc1` [Example 39, 4-Carbamoyl-2-cyclopropylmethyl-6-(4-methoxyphenyl)-2H-pyridazin-3-one], 182.2 to 183.3 °C; in that of `CNC(=O)c1cc(-c2ccc(OC)cc2)nn(Cc2ccc(Cl)cc2Cl)c1=O` [Example 82, 2-(2,4-Dichlorobenzyl)-6-(4-methoxy-phenyl)-4-methylcarbamoyl-2H-pyridazin-3-one], 154.2 to 156.2 °C. In the case of `COc1ccc(-c2cc(C(=O)O)c(=O)n(CC=Cc3ccc(Cl)cc3)n2)cc1` [Example 86, 4-Carboxy-2-(4-chlorocinnamyl)-6-(4-methoxyphenyl)-2H-pyridazin-3-one], the melting point was 222.6 to 224 °C (dec.).

For the compound `CCCCOC(=O)Nc1cc(-c2ccc(OC)cc2)nn(CC=Cc2ccc(Cl)cc2)c1=O` [Example 89, 4-n-butoxycarbonylamino-2-(4-chlorocinnamyl)-6-(4-methoxyphenyl)-2H-pyridazin-3-one], the melting point is 150.2 to 150.9 °C. In the case of `CCOC(=O)Nc1cc(-c2ccc(OC)cc2)nn(CC2CC2)c1=O` [Example 95, 2-cyclopropylmethyl-4-ethoxycarbonylamino-6-(4-methoxyphenyl)-2H-pyridazin-3-one] it was 119.1 to 119.6 °C; in that of `CCOC(=O)Nc1cc(-c2ccc(OC)cc2)nn(CC=C(C)C)c1=O` [Example 93, 4-ethoxycarbonylamino-6-(4-methoxy-phenyl)-2-(3-methyl-2-butenyl)-2H-pyridazin-3-one], 130.2 to 131.2 °C; in that of `NC(=O)c1cc(-c2ccc(F)c(Cl)c2)nn(CC=Cc2ccccc2)c1=O` [Example 127, 4-carbamoyl-6-(3-chloro-4-fluorophenyl)-2-cinnamyl-2H-pyridazin-3-one], 211 to 212 °C. The result for `COc1ccc(-c2cc(C(=O)NCc3ccccn3)c(=O)n(C)n2)cc1` [Example 78, 6-(4-Methoxyphenyl)-2-methyl-4-(2-pyridylmethyl)carbamoyl-2H-pyridazin-3-one] reads 122.4 to 122.9 °C; that for `COC(=O)c1cc(-c2ccc(OC)c(OC)c2)nn(CC(C)C)c1=O` [Example 11, 6-(3,4-Dimethoxyphenyl)-2-isobutyl-4-methoxycarbonyl-2H-pyridazin-3-one], 104.2 to 105.5 °C. The result for `COC(=O)c1cc(-c2ccc(OC)c(F)c2)nn(CC2CC2)c1=O` [Example 18, 2-Cyclopropylmethyl-6-(3-fluoro-4-methoxyphenyl)-4-methoxycarbonyl-2H-pyridazin-3-one] reads 139.6 to 140.7 °C. Compound `COc1ccc(-c2cc(NC(=O)OCCCCCc3ccccc3)c(=O)n(CC=Cc3ccc(Cl)cc3)n2)cc1` [Example 118, 2-(4-chlorocinnamyl)-6-(4-methoxyphenyl)-4-[N-(3-phenylpropyl)ethoxycarbonylamino]-2H-pyridazin-3-one] yielded a melting point of 113.5 to 114.2 °C. The result for `COC(=O)c1cc(-c2ccc(OC)cc2)nn(C)c1=O` [Example 1, 4-Methoxycarbonyl-6-(4-methoxyphenyl)-2-methyl-2H-pyridazin-3-one] reads 109.2 to 109.5 °C; that for `CCCNC(=O)c1cc(-c2ccc(OC)cc2)nn(CC2CCCC2)c1=O` [Example 74, 2-Cyclopentylmethyl-6-(4-methoxyphenyl)-4-n-propylcarbamoyl-2H-pyridazin-3-one], 109.9 to 110.2 °C. The result for `COC(=O)c1cc(-c2ccc(OC)cc2)nn(Cc2ccc(NC(=O)c3cccnc3)cc2)c1=O` [Example 27, 4-Methoxycarbonyl-6-(4-methoxyphenyl)-2-[4-(3-pyridylcarbonylamino)benzyl]-2H-pyridazin-3-one] reads 235.7 to 236.9 °C (dec.); that for `CNC(=O)c1cc(-c2ccc(OC)cc2)nn(CC(=O)NCc2ccccn2)c1=O` [Example 58, 6-(4-Methoxyphenyl)-4-methylcarbamoyl-2-(2-pyridylmethyl)carbamoylmethyl-2H-pyridazin-3-one], 194.7 to 195.8 °C; that for `COc1ccc(-c2cc(N)c(=O)n(CC3CC3)n2)cc1` [Example 124, 4-amino-2-cyclopropylmethyl-6-(4-methoxyphenyl)-2H-pyridazin-3-one], 110.8 to 111.3 °C. As for `CNC(=S)c1cc(-c2ccc(OC)cc2)nn(CC(C)C)c1=O` [Example 130, 2-isobutyl-6-(4-methoxyphenyl)-4-methylthiocarbamoyl-2H-pyridazin-3-one], the melting point was in the range of 116 to 116.6 °C. `CCOC(=O)c1cc(-c2ccc(OC)cc2)nn(CC2CC2)c1=O` [Example 16, 2-Cyclopropylmethyl-4-ethoxycarbonyl-6-(4-methoxyphenyl)-2H-pyridazin-3-one] had a melting point of 80.1 to 80.9 °C. The result for `COc1ccc(-c2cc(NS(C)(=O)=O)c(=O)n(Cc3ccccc3)n2)cc1` [Example 122, 2-benzyl-4-methanesulfonylamino-6-(4-methoxyphenyl)-2H-pyridazin-3-one] reads 195 to 195.5 °C; that for `CCOC(=O)c1cc(-c2ccc(OC)cc2)nn(Cc2ccc(Cl)cc2Cl)c1=O` [Example 24, 2-(2,4-Dichlorobenzyl)-4-ethoxycarbonyl-6-(4-methoxyphenyl)-2H-pyridazin-3-one], 135.7 to 136.3 °C.

In the case of `CNC(=O)c1cc(-c2ccc(OC)cc2)nn(Cc2ccc(NC(=O)c3cccnc3)cc2)c1=O` [Example 81, 6-(4-Methoxyphenyl)-4-methylcarbamoyl-2-[4-(3-pyridylcarbonylamino)benzyl]-2H-pyridazin-3-one], the melting point is 226.7 to 227.6 °C (dec.).

`CNC(=O)Cn1nc(-c2ccc(OC)cc2)cc(C(=O)NC)c1=O` [Example 47, 6-(4-Methoxyphenyl)-4-methylcarbamoyl-2-methylcarbamoylmethyl-2H-pyridazin-3-one] registered a melting point of 250.1 to 250.8 °C.

For `CNC(=O)c1cc(-c2ccc(OC)cc2)nn(CC2CCCC2)c1=O` [Example 72, 2-Cyclopentylmethyl-6-(4-methoxyphenyl)-4-methylcarbamoyl-2H-pyridazin-3-one], the melting point lay within 107.4 to 107.8 °C. `COc1ccc(-c2cc(N)c(=O)n(Cc3ccccc3)n2)cc1` [Example 121, 4-amino-2-benzyl-6-(4-methoxyphenyl)-2H-pyridazin-3-one] returned a melting point of 115.1 to 115.6 °C.

Compound `COc1ccc(-c2cc(C(N)=O)c(=O)n(CC3CCCC3)n2)cc1` [Example 40, 4-Carbamoyl-2-cyclopentylmethyl-6-(4-methoxyphenyl)-2H-pyridazin-3-one] showed a melting point of 182.2 to 183.3 °C. The result for `COc1ccc(-c2cc(C(=O)Nc3ccncc3)c(=O)n(CC3CC3)n2)cc1` [Example 70, 2-Cyclopropylmethyl-6-(4-methoxyphenyl)-4-(4-pyridyl)carbamoyl-2H-pyridazin-3-one] reads 181.3 to 181.5 °C; that for `COc1ccc(-c2cc(NC(=O)OCc3ccc(SC)cc3)c(=O)n(CC=Cc3ccc(Cl)cc3)n2)cc1` [Example 91, 2-(4-chlorocinnamyl)-6-(4-methoxyphenyl)-4-[4-(methylthio)benzyloxycarbonylamino]-2H-pyridazin-3-one], 187.6 to 188.7 °C; that for `COC(=O)c1cc(-c2ccc(OC)c(OC)c2)nn(CC=Cc2ccc(Cl)cc2)c1=O` [Example 32, 2-(4-Chlorocinnamyl)-6-(3,4-dimethoxyphenyl)-4-methoxycarbonyl-2H-pyridazin-3-one], 117.5 to 118.7 °C. In the case of `CNC(=O)c1cc(-c2ccc(OC)cc2)nn(CC=Cc2ccc(Cl)cc2)c1=O` [Example 85, 2-(4-Chlorocinnamyl)-6-(4-methoxyphenyl)-4-methylcarbamoyl-2H-pyridazin-3-one] it was 184.2 to 185.4 °C; in that of `COc1ccc(-c2cc(C(N)=O)c(=O)n(CC=Cc3ccc(Cl)cc3)n2)cc1` [Example 42, 4-Carbamoyl-2-(4-chlorocinnamyl)-6-(4-methoxyphenyl)-2H-pyridazin-3-one], 195.1 to 195.5 °C; in that of `CCOC(=O)c1cc(-c2ccc(OC)cc2)nn(CC(C)C)c1=O` [Example 10, 4-Ethoxycarbonyl-2-isobutyl-6-(4-methoxyphenyl)-2H-pyridazin-3-one], 83 to 83.3 °C. The result for `COc1ccc(-c2cc(NC(=O)NC(C)C)c(=O)n(CC3CC3)n2)cc1` [Example 125, 2-cyclopropylmethyl-4-(3-isopropylureido)-6-(4-methoxyphenyl)-2H-pyridazin-3-one] reads 195.8 to 197 °C.
